In patent publication US5464834A, “N-substituted N'-heterobicyclic piperazines having pharmaceutical activity” (Adir et Compagnie, priority 1992, dated 1995):

What was measured:
Type in all cases: in vivo, rat (male Wistar)
Parameters in all cases: from tissue; host or cells: whole living male Wistar rats (endogenous receptor)
5HT1A receptors [1] = target: T1, 5HT1A receptors (Rattus norvegicus, UniProt P19327); experiment: Flat body posture (FBP), agonist (alone) and antagonist (vs 8-OH-DPAT); conditions: for ED50: rat, sc
T1 sequence (P19327 1-422): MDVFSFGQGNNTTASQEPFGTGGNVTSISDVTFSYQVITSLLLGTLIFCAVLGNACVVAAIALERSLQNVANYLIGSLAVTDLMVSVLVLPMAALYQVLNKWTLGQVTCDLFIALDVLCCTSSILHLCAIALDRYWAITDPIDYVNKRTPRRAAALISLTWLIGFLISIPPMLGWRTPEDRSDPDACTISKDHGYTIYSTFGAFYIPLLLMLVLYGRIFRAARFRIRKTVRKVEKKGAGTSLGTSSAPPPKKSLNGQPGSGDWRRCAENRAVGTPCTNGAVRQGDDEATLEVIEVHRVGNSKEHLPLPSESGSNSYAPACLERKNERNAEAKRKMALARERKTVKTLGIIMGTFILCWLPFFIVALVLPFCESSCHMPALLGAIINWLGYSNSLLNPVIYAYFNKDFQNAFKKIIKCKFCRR
Experimental: (§1) The tests were carried out using male Wistar rats weighing 200 to 220 g having free access to their food and to their drinking water in standard cages.
(§2) The animals are isolated individually for the tests for hypothermia, corticosterone secretion and flat body posture, or combined in groups of three for the tailflick test.
(§3) The compounds to be studied were administered by the subcutaneous route (s.c.) 60 minutes before the beginning of the test, that is to say 30 minutes before the solvent (agonist responses) or the 8-OH-DPAT (antagonist responses).
(§4) In all of the tests the solvent is used in parallel as a control. The animals were left to rest in their cage during the period between the injections and the evaluation. For the agonist studies, the solvent was administered at 1 ml/kg s.c. 30 minutes before the beginning of the test. For the antagonist studies, doses of 8-OH-DPAT that induce sub-maximal responses were chosen, that is doses of 0.63, 0.16, 0.16 and 0.16 mg/kg s.c. for, respectively, the tail flick test, flat body posture test, corticosterone secretion test and hypothermia test.
(§5) The same animals were used to evaluate the influence of the compounds studied on FBP and on the determination of the plasma concentration of CS. All of the tests were carried out in the morning between 10.30 and 12.300 that is to say when the circadian levels of CS are lowest.
25 minutes after the treatment (that is to say 5 minutes before decapitation) the animals are observed in their cages and the presence or absence of FBP is noted.
(§6) The presence of FBP is defined by a characteristic posture of the animal. That posture is in the ventral decubitus position with the posterior limbs clearly extended. 5 minutes after the observation of FBP, the animals are decapitated and the blood from the trunk is collected in cooled tubes containing 50 μl of a 10% EDTA solution. After centrifugation at 4000 revs/min, the plasma is removed and stored at -30° C. until determination.
(§7) In general, after variance analysis, the results are subjected to the Dunett test. The results are taken as significant if p <0.05.
For the dose-response for the induction and inhibition of FBP, the ED50 values (doses at which 50% of the animals show a response) were calculated by the Litchfield and Wilcoxon method.
(§8) The doses of the compounds tested are all expressed in base terms. Unless specified otherwise, all of the compounds were dissolved in sterile water (to which if necessary a few drops of lactic acid were added) and administered at a volume of 1 ml/kg s.c.

5HT1A receptors [2] = target: T1, 5HT1A receptors; experiment: Spontaneous tail flick (STF) test, agonist (alone) and antagonist (vs 8-OH-DPAT)
Experimental: as §1, §2, §3, §4
The tail flicks were determined on the animals in horizontal opaque plastics cylinders with the tail of the animals hanging freely on the edge of the laboratory work bench. After allowing 5 minutes for adaptation, the number of movements made in 5 minutes was recorded. An STF is defined as being an elevation of the tail to a level higher than that of the axis of the body [Millan M. J. et al., J. Pharmacol. Exp. Ther., 256, 973-982 (1990)].
as §7, §8

5HT1A receptors [3] = target: T1, 5HT1A receptors; experiment: Body temperature / hypothermia, agonist (alone) and antagonist (vs 8-OH-DPAT)
Experimental: as §1, §2, §3, §4
The rats are immobilised and a lubricated digital thermometer (Termistroprobe of Testotherm, Basle, Switzerland) is inserted into the rectum to a depth of 5 cm. 30 seconds after insertion, the temperature is read on a digital scale. The percentage inhibition is calculated using the formula given above.
as §7, §8

5HT1A receptors [4] = target: T1, 5HT1A receptors; experiment: Corticosterone secretion (CS), agonist (alone) and antagonist (vs 8-OH-DPAT)
Experimental: as §1, §2, §3, §4, §5, §6
The CS was determined by a radio-competitive determination for a plasma protein that binds the CS: transcortine. The latter is obtained from a monkey serum. The separation of the CS-transcortine complexes from the free CS was carried out by means of a solution of dextran and active carbon. The detection limit was 50 pg/tube. The intra- and inter-experiment variations in determination were 5 and 15% respectively [cf Rivet J. M. et al, Eur. J. Pharmacol., 183,634-635 (1990)].
The CS base rates in the plasma never being zero, the following formula was used to calculated the percentage inhibition of plasma CS induced by 8-OH-DPAT: [formula]
as §7, §8

[5] = agonist test, compound alone s.c., minimum effective dose vs control

SMILES: c1cc2c(c(N3CCN(CCCc4ccsc4)CC3)c1)OCCO2 [Example 1, 4-(Benzodioxan-5-yl)-1-[3-(thiophen-3-yl)propyl]piperazine]
- ED50 (5HT1A receptors [1]; agonist test, compound alone s.c., read-out: FBP ED50 (95% CL) alone): > 10 mg/kg
- ED50 (5HT1A receptors [1]; antagonist test, s.c., vs 8-OH-DPAT 0.16 mg/kg s.c., read-out: FBP ID50 (95% CL) + DPAT): 0.48 mg/kg
- % MPA (% maximum possible antagonism), FBP (5HT1A receptors [1]; vs 8-OH-DPAT 0.16 mg/kg s.c.): 100%
- STFs MED alone (5HT1A receptors [2]; [5]): > 10.0 mg/kg
- ED50 (5HT1A receptors [2]; rat, sc, antagonist test, s.c., vs 8-OH-DPAT 0.63 mg/kg s.c., read-out: STFs ID50 (95% CL) + DPAT): 0.12 mg/kg
- % MPA (% maximum possible antagonism), STFs (5HT1A receptors [2]; vs 8-OH-DPAT 0.63 mg/kg s.c.): 92%
- HYPOTHERMIA MED alone (5HT1A receptors [3]; [5]): 10.0 mg/kg
- ED50 (5HT1A receptors [3]; rat, sc, antagonist test, s.c., vs 8-OH-DPAT 0.16 mg/kg s.c., read-out: HYPOTHERMIA ID50 (95% CL) + DPAT): 0.16 mg/kg
- % MPA (% maximum possible antagonism), HYPOTHERMIA (5HT1A receptors [3]; vs 8-OH-DPAT 0.16 mg/kg s.c.): 98%
- CS secretion MED alone (5HT1A receptors [4]; [5]): 10.0 mg/kg
- ED50 (5HT1A receptors [4]; rat, sc, antagonist test, s.c., vs 8-OH-DPAT 0.16 mg/kg s.c., read-out: CS secretion ID50 (95% CL) + DPAT): 0.43 mg/kg
- % MPA (% maximum possible antagonism), CS secretion (5HT1A receptors [4]; vs 8-OH-DPAT 0.16 mg/kg s.c.): 100%
